Assays:
Format in all cases: biochemical
Settings in all cases: continuous assay 60 min, reaction initiated by adding enzyme
mICE = molecular target: T1, mICE (Mus musculus, UniProt P29452); experiment: Dissociation constant Ki and irreversible rate constant k3 for irreversible inhibitors, ICE
T1 sequence (P29452 123-296 limits assumed): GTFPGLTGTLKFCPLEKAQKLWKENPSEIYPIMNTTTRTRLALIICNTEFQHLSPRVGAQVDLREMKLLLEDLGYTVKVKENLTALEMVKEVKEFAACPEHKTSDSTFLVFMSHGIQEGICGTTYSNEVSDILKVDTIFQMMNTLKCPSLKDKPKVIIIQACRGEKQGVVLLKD
T1 sequence (P29452 315-402 limits assumed): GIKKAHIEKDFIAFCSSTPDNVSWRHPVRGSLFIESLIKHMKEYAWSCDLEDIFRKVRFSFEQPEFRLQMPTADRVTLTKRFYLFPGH

CPP32 = molecular target: T2, CPP32 (Homo sapiens, UniProt P42574); experiment: Dissociation constant Ki and irreversible rate constant k3 for irreversible inhibitors, CPP32
T2 sequence (P42574 29-175 limits assumed): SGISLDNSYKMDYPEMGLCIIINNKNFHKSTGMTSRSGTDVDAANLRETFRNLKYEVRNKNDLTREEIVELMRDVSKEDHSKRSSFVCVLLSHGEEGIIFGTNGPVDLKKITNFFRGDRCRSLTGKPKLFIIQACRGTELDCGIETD
T2 sequence (P42574 176-277 limits assumed): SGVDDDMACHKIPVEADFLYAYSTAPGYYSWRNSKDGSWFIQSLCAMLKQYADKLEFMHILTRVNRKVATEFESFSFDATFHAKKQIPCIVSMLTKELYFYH

MCH-2 = molecular target: T3, MCH-2 (Homo sapiens, UniProt P55212); experiment: Dissociation constant Ki and irreversible rate constant k3 for irreversible inhibitors, Mch2
T3 sequence (P55212 24-179 limits assumed): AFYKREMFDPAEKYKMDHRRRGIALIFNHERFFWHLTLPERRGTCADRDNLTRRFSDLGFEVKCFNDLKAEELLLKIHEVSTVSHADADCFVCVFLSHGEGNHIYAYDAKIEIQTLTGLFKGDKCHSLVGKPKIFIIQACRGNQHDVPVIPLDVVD
T3 sequence (P55212 194-293 limits assumed): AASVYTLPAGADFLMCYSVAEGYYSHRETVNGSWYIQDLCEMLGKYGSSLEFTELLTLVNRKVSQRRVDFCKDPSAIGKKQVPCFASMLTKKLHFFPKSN

MCH-5 = MCH-5 (Homo sapiens, UniProt Q14790); experiment: Dissociation constant Ki and irreversible rate constant k3 for irreversible inhibitors, Mch5
Chain of MCH-5 (Q14790 217-374 limits assumed, species assumed): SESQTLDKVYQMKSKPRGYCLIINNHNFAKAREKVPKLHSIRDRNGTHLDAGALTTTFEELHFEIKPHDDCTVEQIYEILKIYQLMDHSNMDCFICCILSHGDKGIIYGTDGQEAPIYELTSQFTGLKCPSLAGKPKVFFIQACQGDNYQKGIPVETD
Chain of MCH-5 (Q14790 385-479 limits assumed, species assumed): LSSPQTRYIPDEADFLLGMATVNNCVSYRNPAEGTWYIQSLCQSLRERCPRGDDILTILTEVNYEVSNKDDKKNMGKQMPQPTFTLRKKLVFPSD

SMILES | Ki (mICE) | mICE k3/Ki (mICE) | CPP32 k3/Ki (CPP32) | Ki (CPP32) | Ki (MCH-2) | MCH-2 k3/Ki (MCH-2) | Ki (MCH-5) | MCH-5 k3/Ki (MCH-5)
CC(C)[C@H](NC(=O)COc1cccc2ccccc12)C(=O)N[C@@H](CC(=O)O)C(=O)COn1nnc2ccccc2c1=O [Example 62, (3S)-3-[N-((1-Naphthyloxy)Acetyl)Valinyl]Amino-5-(1′,2′,3′-Benzotriazin-4′(3H)-on-3′-yloxy)-4-Oxopentanoic Acid] | 253 nM | 45,400 M^−1s^−1 | 169,000 M^−1s^−1 | 52 nM | 42 nM | 44,000 M^−1s^−1 | 48 nM | 18,200 M^−1s^−1
CC(C)[C@H](NC(=O)COc1ccc2ccccc2c1)C(=O)N[C@@H](CC(=O)O)C(=O)COC(=O)c1c(Cl)cccc1Cl [Example 155] | 168 nM | 59,800 M^−1s^−1 | 206,000 M^−1s^−1 | 47 nM | 15 nM | 166,000 M^−1s^−1 | 136 nM | 7,910 M^−1s^−1
CC(C)[C@H](NC(=O)COc1cccc2ccccc12)C(=O)N[C@@H](CC(=O)O)C(=O)COc1ccc(F)c(F)c1F [Example 74] | 280 nM | 11,900 M^−1s^−1 | 35,800 M^−1s^−1 | 135 nM | 1250 nM | 250 M⁻¹ s⁻¹ | 1080 nM | 770 M⁻¹ s⁻¹
CC(C)C[C@H](NC(=O)COc1ccccc1-c1ccccc1)C(=O)NC(CC(=O)O)C(=O)CF (mixture of isomers) [Example 57, (3RS)-3-[N-((2-Phenylphenoxy)Acetyl)Leucinyl]Amino-5-Fluoro-4-Oxopentanoic Acid] | 120 nM | 37,400 M^−1s^−1 | 177,000 M^−1s^−1 | 42 nM | 30 nM | 91,000 M^−1s^−1 | 66 nM | 15,900 M^−1s^−1
CC(C)[C@H](NC(=O)COc1cccc2ccccc12)C(=O)N[C@@H](CC(=O)O)C(=O)COP(C)(=O)c1ccccc1 (stereo partly shown) [Example 104] | 133 nM | 50,600 M^−1s^−1 | 151,000 M^−1s^−1 | 54 nM | 37 nM | 50,200 M^−1s^−1 | 59 nM | 15,500 M^−1s^−1
CC(C)C[C@H](NC(=O)COc1c(C(=O)O)ccc2ccccc12)C(=O)N[C@@H](CC(=O)O)C(=O)COP(=O)(c1ccccc1)c1ccccc1 [Example 166] | 42 nM | 149,000 M^−1s^−1 | 317,000 M^−1s^−1 | 28 nM | 11 nM | 146,000 M^−1s^−1 | 28 nM | 80,000 M^−1s^−1
CC(C)[C@H](NC(=O)COc1cccc2ccccc12)C(=O)N[C@@H](CC(=O)O)C(=O)COc1c(-c2ccccc2)oc2ccccc2c1=O [Example 115] | 324 nM | 8,740 M^−1s^−1 | 127,000 M^−1s^−1 | 46 nM | 54 nM | 0 M⁻¹ s⁻¹ | 4670 nM | 0 M⁻¹ s⁻¹
CC(C)[C@H](NC(=O)CCOc1cccc2ccccc12)C(=O)N[C@@H](CC(=O)O)C(=O)COC(=O)c1c(Cl)cccc1Cl [Example 158] | 168 nM | 34,300 M^−1s^−1 | 98,200 M^−1s^−1 | 109 nM | 22 nM | 103,000 M^−1s^−1 | 264 nM | 1,610 M^−1s^−1
CC(C)[C@H](NC(=O)COc1cccc2ccccc12)C(=O)N[C@@H](CC(=O)O)C(=O)COc1ccccc1F [Example 65] | 305 nM | 6,020 M^−1s^−1 | 26,800 M^−1s^−1 | 102 nM | 336 nM | 0 M⁻¹ s⁻¹ | 354 nM | 230 M⁻¹ s⁻¹
CC(C)[C@H](NC(=O)COc1cccc2ccccc12)C(=O)N[C@@H](CC(=O)O)C(=O)COP(=O)(Cc1ccccc1)c1ccccc1 (stereo partly shown) [Example 107] | 66 nM | 106,000 M^−1s^−1 | 424,000 M^−1s^−1 | 14 nM | 21 nM | 187,000 M^−1s^−1 | 48 nM | 27,800 M^−1s^−1
CC(C)[C@H](NC(=O)COc1cccc2ccccc12)C(=O)N[C@@H](CC(=O)O)C(=O)COc1c(F)cccc1F [Example 71] | 193 nM | 53,900 M^−1s^−1 | 200,000 M^−1s^−1 | 39 nM | 38 nM | 9,980 M^−1s^−1 | 120 nM | 9,100 M^−1s^−1
CC(C)[C@H](NC(=O)COc1cccc2ccccc12)C(=O)N[C@@H](CC(=O)O)C(=O)COc1ccc(F)cc1F [Example 69] | 615 nM | 8,400 M^−1s^−1 | 21,700 M^−1s^−1 | 92 nM | 951 nM | 0 M⁻¹ s⁻¹ | 1300 nM | 630 M⁻¹ s⁻¹
CC(C)[C@H](NC(=O)COc1cccc2ccccc12)C(=O)N[C@@H](CC(=O)O)C(=O)COc1c(F)ccc(F)c1F [Example 76] | 90 nM | 47,100 M^−1s^−1 | 188,000 M^−1s^−1 | 63 nM | 58 nM | 81,700 M^−1s^−1 | 81 nM | 17,000 M^−1s^−1
CC(C)[C@H](NC(=O)COc1cccc2ccccc12)C(=O)N[C@@H](CC(=O)O)C(=O)COP(C)(=O)c1cccc2ccccc12 (stereo partly shown) [Example 110] | 59 nM | 64,900 M^−1s^−1 | 272,000 M^−1s^−1 | 35 nM | 15 nM | 150,000 M^−1s^−1 | 43 nM | 18,800 M^−1s^−1
Cc1cc(OCC(=O)[C@H](CC(=O)O)NC(=O)[C@@H](NC(=O)COc2cccc3ccccc23)C(C)C)cc(=O)o1 [Example 111] | 308 nM | 6,500 M^−1s^−1 | 21,900 M^−1s^−1 | 220 nM | 2160 nM | 230 M⁻¹ s⁻¹ | 2870 nM | 170 M⁻¹ s⁻¹
CC(C)[C@H](NC(=O)COc1cccc2ccccc12)C(=O)N[C@@H](CC(=O)O)C(=O)COc1cc(F)cc(F)c1 [Example 73] | 592 nM | 2,170 M^−1s^−1 | 9,240 M^−1s^−1 | 106 nM | 862 nM | 110 M⁻¹ s⁻¹ | 1030 nM | 150 M⁻¹ s⁻¹
CC(C)[C@H](NC(=O)COc1cccc2ccccc12)C(=O)N[C@@H](CC(=O)O)C(=O)COP(C)(=O)c1ccc(F)cc1 (stereo partly shown) [Example 108] | 147 nM | 37,900 M^−1s^−1 | 140,000 M^−1s^−1 | 41 nM | 37 nM | 60,400 M^−1s^−1 | 105 nM | 9,890 M^−1s^−1
